Results reported in the NIST ThermoML archive (doi:10.1016/j.jct.2019.04.014).

Assays:
[1] = for Normal melting temperature: Crystal, DTA; for vapor or sublimation pressure: Liquid, Determined from thermal gravimetric analysis data
[2] = Molar enthalpy of transition or fusion; settings: Crystal; DSC
[3] = Boiling temperature at pressure P; settings: 94.4 kPa; Liquid; DSC

[O-][n+]1ccccc1S [2-mercaptopyridine N-oxide]
Settings | Molar enthalpy of transition or fusion [kcal/mol] | Normal melting temperature [°C]
[1] | – | 71.20
[2] | 3.18 | –

Cc1cc(C)c[n+]([O-])c1 [3,5-dimethylpyridine N-oxide]
Settings | Boiling temperature at pressure P [°C] | Molar enthalpy of transition or fusion [kcal/mol] | Normal melting temperature [°C]
[1] | – | – | 101.30
[2] | – | 2.96 | –
[3] | 291.70 | – | –

[O-][n+]1cccc(O)c1 [3-hydroxypyridine-N-oxide]
Settings | Molar enthalpy of transition or fusion [kcal/mol] | Normal melting temperature [°C]
[1] | – | 189.70
[2] | 4.5 | –

Cc1ccc[n+]([O-])c1 [3-picoline N-oxide]
[1]
Settings | vapor or sublimation pressure [kPa]
433.15 K | 4.26
435.15 K | 4.48
440.15 K | 5.4
443.15 K | 5.93
445.15 K | 6.29
447.15 K | 6.89
450.15 K | 7.47
453.15 K | 8.23
455.15 K | 8.91
457.15 K | 9.28
460.15 K | 10.15
463.15 K | 10.93
465.15 K | 11.69
467.15 K | 12.28
470.15 K | 13.42
473.15 K | 14.64
475.15 K | 15.17
477.15 K | 16.14
480.15 K | 17.37
483.15 K | 18.4
485.15 K | 19.19
487.15 K | 20.28
490.15 K | 21.69
493.15 K | 23.24
495.15 K | 24.75
497.15 K | 25.56
500.15 K | 27.36
503.15 K | 29.43
505.15 K | 31
507.15 K | 32.53
510.15 K | 35.18
513.15 K | 37.62
515.15 K | 38.66
517.15 K | 40.64

Settings | Boiling temperature at pressure P [°C] | Molar enthalpy of transition or fusion [kcal/mol] | Normal melting temperature [°C]
[1] | – | – | 37.10
[2] | – | 2.52 | –
[3] | 283.80 | – | –

O=C(O)c1ccc[n+]([O-])c1 [3-pyridinecarboxylic acid N-oxide]
Settings | Molar enthalpy of transition or fusion [kcal/mol] | Normal melting temperature [°C]
[1] | – | 258.30
[2] | 5.63 | –

Cc1cc[n+]([O-])cc1 [4-methylpyridine-N-oxide]
Settings | Boiling temperature at pressure P [°C] | Molar enthalpy of transition or fusion [kcal/mol] | Normal melting temperature [°C]
[1] | – | – | 184.60
[2] | – | 4.51 | –
[3] | 287.30 | – | –

O=[N+]([O-])c1cc[n+]([O-])cc1 [4-nitropyridine N-oxide]
Settings | Molar enthalpy of transition or fusion [kcal/mol] | Normal melting temperature [°C]
[1] | – | 160.80
[2] | 4.18 | –

O=C(O)c1cc[n+]([O-])cc1 [4-pyridinecarboxylic acid N-oxide]
Settings | Molar enthalpy of transition or fusion [kcal/mol] | Normal melting temperature [°C]
[1] | – | 268.50
[2] | 5.76 | –

O=C(O)c1ccccc1 [benzoic acid]
Settings | Normal melting temperature [°C]
[1] | 121.60

NC(=O)c1ccc[n+]([O-])c1 [nicotinamide N-oxide]
Settings | Normal melting temperature [°C]
[1] | 289.50

O=C(O)c1cccc[n+]1[O-] [picolinic acid N-oxide]
Settings | Boiling temperature at pressure P [°C] | Molar enthalpy of transition or fusion [kcal/mol] | Normal melting temperature [°C]
[1] | – | – | 163.80
[2] | – | 7.21 | –
[3] | 267.60 | – | –

[O-][n+]1ccccc1 [pyridine N-oxide]
[1]
Settings | vapor or sublimation pressure [kPa]
425.15 K | 2.5
427.15 K | 2.66
433.15 K | 3.33
435.15 K | 3.59
440.15 K | 4.28
443.15 K | 4.86
445.15 K | 5.22
447.15 K | 5.5
450.15 K | 6.19
453.15 K | 6.84
455.15 K | 7.36
457.15 K | 7.89
460.15 K | 8.88
463.15 K | 9.76
465.15 K | 10.41
467.15 K | 11.15
470.15 K | 12.44
473.15 K | 13.57
475.15 K | 14.4
477.15 K | 15.28
480.15 K | 16.58

Settings | Boiling temperature at pressure P [°C] | Molar enthalpy of transition or fusion [kcal/mol] | Normal melting temperature [°C]
[1] | – | – | 63.80
[2] | – | 2.31 | –
[3] | 267.60 | – | –

[O-][n+]1cccc2ccccc21 [quinoline 1-oxide]
Settings | Molar enthalpy of transition or fusion [kcal/mol] | Normal melting temperature [°C]
[1] | – | 55.40
[2] | 2.45 | –
